According to patent EP4818324A1, “BIOLOGICAL METHOD FOR PREPARING 1,2-PROPANEDIOL” (Tianjin University, priority 2023, dated 2025):

How the values were obtained:
[1] = tested on: Lactiplantibacillus plantarum 1,5-anhydroglucitol-6-phosphate isomerase LpYbiW (Uniprot A0A807DR53), SEQ ID NO: 2; experiment: Michaelis-Menten kinetics of LpYbiW, coupled with LpFsaA and EcGldA, NADH consumption at A340nm; type: biochemical; details: substrate 1,5-anhydroglucitol-6-phosphate at varying concentrations; 100 nM activated LpYbiW, 20 mM Tris/HCl pH 7.5, 100 mM KCl, 0.4 mM NADH, glove box
Experimental: The Michaelis-Menten kinetic parameters of LpYbiW were determined by coupling with LpFsaA and EcGldA. The reaction rate of LpYbiW was monitored by measuring NADH consumption at A340nm. The absorbance change of the reaction system at 340 nm was measured every 5 seconds using the cuvette mode of an ultra-micro UV-visible spectrophotometer (Nanophotometer) in a glove box (1 cm light path). These reaction systems consisted of 100 nM activated LpYbiW, 20 mM Tris/HCl, (pH 7.5), 100 mM KCl, 1,5-anhydroglucitol-6-phosphate with varying concentrations, 5 µM LpFsaA, 5 µM EcGldA, and 0.4 mM NADH.

[2] = target: T1, Escherichia coli strain K12 1,5-anhydromannitol-6-phosphate isomerase EcPflD (Uniprot P32674), SEQ ID NO: 98 (Escherichia coli, UniProt P32674); experiment: Michaelis-Menten kinetics of EcPflD, coupled with EcFsaB and EcGldA, decrease in A340nm; type: biochemical; details: substrate 1,5-AM-6P at various concentrations; 40 nM activated EcPflD, 20 mM Tris/HCl pH 7.5, 100 mM KCl, 0.4 mM NADH, glove box
T1 sequence (P32674 1-765): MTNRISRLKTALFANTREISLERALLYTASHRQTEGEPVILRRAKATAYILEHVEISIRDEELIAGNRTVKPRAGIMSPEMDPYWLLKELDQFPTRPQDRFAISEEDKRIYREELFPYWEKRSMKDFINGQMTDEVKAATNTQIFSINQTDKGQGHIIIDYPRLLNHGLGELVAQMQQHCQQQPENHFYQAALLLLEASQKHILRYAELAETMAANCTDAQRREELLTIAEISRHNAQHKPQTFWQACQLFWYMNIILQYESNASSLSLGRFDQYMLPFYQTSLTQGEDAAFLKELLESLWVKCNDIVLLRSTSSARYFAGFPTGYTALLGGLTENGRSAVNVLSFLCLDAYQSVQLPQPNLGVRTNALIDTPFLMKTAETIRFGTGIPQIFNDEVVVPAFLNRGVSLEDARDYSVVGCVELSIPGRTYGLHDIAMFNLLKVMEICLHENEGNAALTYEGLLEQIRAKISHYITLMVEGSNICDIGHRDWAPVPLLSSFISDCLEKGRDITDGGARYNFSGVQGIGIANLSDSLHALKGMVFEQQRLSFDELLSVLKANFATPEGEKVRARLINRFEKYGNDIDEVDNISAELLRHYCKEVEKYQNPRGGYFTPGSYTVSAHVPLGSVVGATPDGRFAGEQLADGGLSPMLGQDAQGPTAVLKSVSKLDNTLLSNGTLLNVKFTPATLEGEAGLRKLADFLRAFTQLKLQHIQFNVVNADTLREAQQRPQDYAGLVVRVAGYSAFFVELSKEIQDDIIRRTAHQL
Experimental: The reaction system containing 20 mM Tris/HCl, (pH 7.5), 100 mM KCl, 40 nM activated EcPflD and 1,5-AM-6P with various substrate concentrations, 2 µM EcFsaB, 2 µM EcGldA, and 0.4 mM NADH was measured using a cuvette mode of an ultra-micro UV-Vis spectrophotometer (Hangzhou Miu Instruments Co., Ltd.) in a 1 cm Eppendorf cuvette inside a glove box. The decrease in A340nm was monitored at 5-second intervals.

SMILES | Km [1] [mM] | kcat [1] [s^-1/LpYbiW] | Km [2] [mM] | kcat [2] [s^-1/EcPflD]
O=P(O)(O)OC[C@H]1OC[C@H](O)[C@@H](O)[C@@H]1O [1,5-AG-6P, 1,5-anhydroglucitol-6-phosphate] | 36.5 ± 6.66 | 43.38 ± 2.96 | – | –
O=P(O)(O)OC[C@H]1OC[C@@H](O)[C@@H](O)[C@@H]1O [1,5-AM-6P, 1,5-anhydromannitol-6-phosphate] | – | – | 1.33 ± 0.12 | 33.47 ± 0.79
